Calls of active or inactive are those of the source. The rule behind the calls is not given here.
Legend:
[1] = tested on: DBTRG-05MG; test: Induction of DNA damage in human DBTRG-05MG cells assessed as H2A.X phosphorylation at ser139 residues at 206 uM after 48 hrs by Western blot analysis (reference value: 1); assay type: functional
[2] = tested on: DBTRG-05MG; test: Induction of cell cycle arrest in human DBTRG-05MG cells assessed as CyclinA expression at 206 uM after 48 hrs by Western blot analysis (reference value: 1); assay type: functional
[3] = tested on: RG2; test: Induction of cell cycle arrest in rat RG2 cells assessed as accumulation at G2/M phase at 206 uM after 48 hrs by propidium iodide staining based flow cytometric analysis (reference value: 20.04 +/- 0.55%); assay type: functional
[4] = tested on: DBTRG-05MG; test: Induction of apoptosis in human DBTRG-05MG cells assessed as Bax expression at 206 uM after 48 hrs by Western blot analysis (reference value: 1); assay type: functional
[5] = tested on: DBTRG-05MG; test: Induction of cell cycle arrest in human DBTRG-05MG cells assessed as accumulation at G0/G1 phase at 206 uM after 12 hrs by propidium iodide staining based flow cytometric analysis (reference value: 47.16 +/- 1.55%); assay type: functional
[6] = tested on: DBTRG-05MG; test: Induction of apoptosis in human DBTRG-05MG cells assessed as increase in DNA fragmentation at 206 uM after 48 hrs by TUNEL assay; assay type: functional, cell-based
[7] = tested on: DBTRG-05MG; test: Induction of DNA damage in human DBTRG-05MG cells assessed as ATR phosphorylation at ser428 residues at 112.4 uM after 48 hrs by Western blot analysis (reference value: 1); assay type: functional
[8] = Synergistic cytotoxicity against rat CTX TNA2 cells assessed as combination index at 89.9 uM after 48 hrs in presence of 103 uM TMZ by MTT assay; assay type: cell-based; details: ctx tna2, 48 h
[9] = tested on: RG2; test: Synergistic cytotoxicity against rat RG2 cells assessed as combination index at 134.9 uM after 48 hrs in presence of 412.1 uM TMZ by MTT assay; assay type: functional
[10] = tested on: DBTRG-05MG; test: Induction of apoptosis in human DBTRG-05MG cells assessed as increase in apoptotic body formation at 112.4 uM after 48 hrs in presence of TMZ by TUNEL assay; assay type: functional, cell-based
[11] = tested on: DBTRG-05MG; test: Synergistic cytotoxicity against human DBTRG-05MG cells assessed as combination index at 89.9 uM after 48 hrs in presence of 206 uM TMZ by MTT assay; assay type: functional
[12] = tested on: RG2; test: Induction of DNA damage in rat RG2 cells assessed as H2A.X phosphorylation at ser139 at 112.4 uM after 48 hrs by Western blot analysis (reference value: 1); assay type: functional
[13] = tested on: DBTRG-05MG; test: Induction of cell cycle arrest in human DBTRG-05MG cells assessed as accumulation at G2/M phase at 112.4 uM after 48 hrs by propidium iodide staining based flow cytometric analysis (reference value: 30.08 +/- 0.1%); assay type: functional
[14] = Synergistic cytotoxicity against rat CTX TNA2 cells assessed as synergistic effect index at 89.9 uM after 48 hrs in presence of 309 uM TMZ by MTT assay; assay type: cell-based; details: ctx tna2, 48 h
[15] = Inhibition of TMZ-induced drug resistance in rat RG2 cells assessed as MDR1 expression at 112.4 uM after 48 hrs by Western blot analysis (reference value: 5.3); assay type: functional
[16] = tested on: DBTRG-05MG; test: Induction of cell cycle arrest in human DBTRG-05MG cells assessed as accumulation at S phase at 112.4 uM after 6 hrs in presence of TMZ by propidium iodide staining based flow cytometric analysis (reference value: 22.76 +/- 1.56%); assay type: functional
[17] = tested on: DBTRG-05MG; test: Induction of cell cycle arrest in human DBTRG-05MG cells assessed as p21 expression at 112.4 uM after 48 hrs by Western blot analysis (reference value: 1); assay type: functional
[18] = tested on: RG2; test: Induction of cell cycle arrest in rat RG2 cells assessed as CDK2 expression at 112.4uM after 48 hrs in presence of TMZ by Western blot analysis (reference value: 1); assay type: functional
[19] = Synergistic cytotoxicity against rat CTX TNA2 cells assessed as synergistic effect index at 112.4 uM after 48 hrs in presence of 103 uM TMZ by MTT assay; assay type: cell-based; details: ctx tna2, 48 h
[20] = tested on: DBTRG-05MG; test: Synergistic cytotoxicity against human DBTRG-05MG cells assessed as combination index at 89.9 uM after 48 hrs in presence of 515.1 uM TMZ by MTT assay; assay type: functional
[21] = tested on: DBTRG-05MG; test: Induction of apoptosis in human DBTRG-05MG cells assessed as increase in apoptotic body formation at 112.4 uM after 48 hrs by TUNEL assay; assay type: functional, cell-based
[22] = tested on: DBTRG-05MG; test: Induction of DNA damage in human DBTRG-05MG cells assessed as Chk1 phosphorylation at ser345 residues at 112.4 uM after 48 hrs by Western blot analysis (reference value: 1); assay type: functional
[23] = tested on: RG2; test: Inhibition of JNK phosphorylation at Thr183/Tyr185 residues in rat RG2 cells at 112.4uM after 48 hrs in presence of TMZ by Western blot analysis (reference value: 1); assay type: cell-based
[24] = tested on: RG2; test: Induction of cell cycle arrest in rat RG2 cells assessed as accumulation at G2/M phase at 112.4 uM after 24 hrs in presence of TMZ by propidium iodide staining based flow cytometric analysis (reference value: 20.04 +/- 0.55%); assay type: functional
[25] = tested on: DBTRG-05MG; test: Induction of cell cycle arrest in human DBTRG-05MG cells assessed as CDK4 expression at 112.4 uM after 48 hrs in presence of TMZ by Western blot analysis (reference value: 1); assay type: functional
[26] = tested on: DBTRG-05MG; test: Induction of DNA damage in human DBTRG-05MG cells assessed as Chk2 phosphorylation at Thr68 residues at 112.4 uM after 48 hrs by Western blot analysis (reference value: 1); assay type: functional
[27] = tested on: DBTRG-05MG; test: Synergistic cytotoxicity against human DBTRG-05MG cells assessed as synergistic effect index at 112.4 uM after 48 hrs in presence of 515.1 uM TMZ by MTT assay; assay type: functional
[28] = Effect on AKT expression in human DBTRG-05MG cells at 112.4uM after 48 hrs by Western blot analysis (reference value: 1); assay type: functional
[29] = tested on: RG2; test: Induction of cell cycle arrest in rat RG2 cells assessed as CyclinD1 expression at 112.4 uM after 48 hrs in presence of TMZ by Western blot analysis (reference value: 1); assay type: functional
[30] = Synergistic cytotoxicity against rat CTX TNA2 cells assessed as combination index at 89.9 uM after 48 hrs in presence of 309 uM TMZ by MTT assay; assay type: cell-based; details: ctx tna2, 48 h
[31] = tested on: DBTRG-05MG; test: Inhibition of ERK phosphorylation at Tyr204 residues in human DBTRG-05MG cells at 112.4uM after 48 hrs in presence of TMZ by Western blot analysis (reference value: 1); assay type: cell-based
[32] = tested on: RG2; test: Induction of cell cycle arrest in rat RG2 cells assessed as p21 expression at 112.4 uM after 48 hrs in presence of TMZ by Western blot analysis (reference value: 1); assay type: functional
[33] = tested on: RG2; test: Induction of cell cycle arrest in rat RG2 cells assessed as accumulation at G2/M phase at 112.4 uM after 6 hrs in presence of TMZ by propidium iodide staining based flow cytometric analysis (reference value: 20.04 +/- 0.55%); assay type: functional

## Cn1nnc2c(C(N)=O)ncn2c1=O [TEMOZOLOMIDE]
[1]
  fold change (FC): 1
[2]
  fold change (FC): 1.9
[3]
  Activity: 54.71%
[4]
  fold change (FC): 1.4
[5]
  Activity: 42.28%
[6]
  Activity: Active

## C[C@@H]1CC[C@H]2C(C)(C)[C@H]3C[C@@]12CC[C@@]3(C)O [CEDROL]
[7]
  fold change (FC): 1.5
[8]
  CI: 1.24
[9]
  CI: 0.93
[10]
  Activity: Active
[11]
  CI: 0.74
[12]
  fold change (FC): 1
[13]
  Activity: 28.83%
[14]
  Activity_index: 0.49
[15]
  fold change (FC): 2
[16]
  Activity: 18.29%
[17]
  fold change (FC): 1.1
[18]
  fold change (FC): 0.4
[19]
  Activity_index: 0.26
[20]
  CI: 0.81
[21]
  Activity: Active
[22]
  fold change (FC): 0.9
[23]
  fold change (FC): 0.6
[24]
  Activity: 26.19%
[25]
  fold change (FC): 0.6
[26]
  fold change (FC): 1.9
[27]
  Activity_index: 0.85
[28]
  fold change (FC): 0.9
[29]
  fold change (FC): 0.8
[30]
  CI: 1.13
[31]
  fold change (FC): 0.5
[32]
  fold change (FC): 2.5
[33]
  Activity: 19.39%

Reference: ChEMBL document CHEMBL4699511, “Cedrol, a Sesquiterpene Alcohol, Enhances the Anticancer Efficacy of Temozolomide in Attenuating Drug Resistance via Regulation of the DNA Damage Response and MGMT Expression” (J Nat Prod, 2020)
